In brackets after ≈: the same amount, converted by molar mass.
Assays:
Type in all cases: cell-based
[1] = test system: Trichophyton rubrum NBRC6203; experiment: In vitro anti-tinea fungus activity test (T. rubrum); conditions: Table 22, 27° C. for 5 days, alamar Blue, minimum concentration showing 80% or more inhibition; for MIC: Trichophyton rubrum, 120 h, read-out: minimum inhibitory concentration against various fungi (MIC) T. rubrum
Protocol: (§1) Trichophyton rubrum NBRC6203 and Trichophyton mentagrophytes TIMM2789 were used as the strains. The test fungi were cultured on a Sabouraud dextrose agar slant medium at 27° C. for 10-13 days, and then suspended in sterilized saline. The number of cells in this suspension was counted using a hemocytometer, and the same suspension was adjusted to a cell concentration of 2×10^6 conidia/mL, and this was used as an inoculum. Each compound was dissolved in dimethyl sulfoxide to a predetermined concentration, and diluted 50-fold with 0.165 M MOPS buffered RPMI 1640 liquid medium, and each diluted solution was dispensed into a 96-well microplate by each 100 μL. The inoculum was diluted 50-fold with 0.165 M MOPS buffered RPMI 1640 liquid medium containing 20% alamar Blue™, and the diluted solution was inoculated into the 96-well microplate containing the compound by each 100 μL (final inoculum amount 2×10^4 conidia/mL). After static culture at 27° C. for 3 days (Trichophyton mentagrophytes) or for 5 days (Trichophyton rubrum), the degree of color development of the alamar Blue™ was measured using a microplate reader (O.D. 570-595 nm), and the minimum concentration showing 80% or more inhibition was defined as the minimum inhibitory concentration (MIC).

[2] = test system: Trichophyton mentagrophytes TIMM2789; experiment: In vitro anti-tinea fungus activity test (T. mentagrophytes); conditions: Table 22, 27° C. for 3 days, alamar Blue, minimum concentration showing 80% or more inhibition; for MIC: Trichophyton mentagrophytes, 72 h, read-out: minimum inhibitory concentration against various fungi (MIC) T. mentagrophytes
Protocol: as §1

[3] = test system: Candida albicans NBRC1270; experiment: In vitro anti-Candida activity test; conditions: for minimum inhibitory concentration against various fungi (MIC) C. albicans / MIC: Table 22, 35° C. for 24 hr, alamar Blue, minimum concentration showing 80% or more inhibition; for MIC: Candida albicans, read-out: minimum inhibitory concentration against various fungi (MIC) C. albicans; for C. albicans (MIC): 80% or more inhibition, unit inferred
Protocol: Candida albicans NBRC1270 was used as the strain. The test fungi were cultured on a Sabouraud dextrose agar slant medium at 35° C. for 24 hr, and then suspended in sterilized saline. The number of cells in this suspension was counted using a hemocytometer, and the same suspension was adjusted to a cell concentration of 1.5×10^5 cells/mL, and this was used as an inoculum. Each compound was dissolved in dimethyl sulfoxide to a predetermined concentration, and diluted 50-fold with 0.165 M MOPS buffered RPMI 1640 liquid medium, and each diluted solution was dispensed into a 96-well microplate by each 100 μL. The inoculum was diluted 50-fold with 0.165 M MOPS buffered RPMI 1640 liquid medium containing 20% alamar Blue™, and the diluted solution was inoculated into the 96-well microplate containing the compound by each 100 μL (final inoculum amount 1.5×10^3 cells/mL). After static culture at 35° C. for 24 hr, the degree of color development of the alamar Blue™ was measured using a microplate reader (O.D. 570-595 nm), and the minimum concentration showing 80% or more inhibition was defined as the minimum inhibitory concentration (MIC).

[4] = test system: Aspergillus fumigatus TIMM0063; experiment: In vitro anti-Aspergillus activity test; conditions: for minimum inhibitory concentration against various fungi (MIC) A. fumigatus / MIC: Table 22, 35° C. for 48 hr, alamar Blue, minimum concentration showing 80% or more inhibition; for MIC: Aspergillus fumigatus, read-out: minimum inhibitory concentration against various fungi (MIC) A. fumigatus; for A. fumigatus (MIC): 80% or more inhibition, unit inferred
Protocol: Aspergillus fumigatus TIMM0063 was used as the strain. The test fungi were cultured on a Potato dextrose agar slant medium at 35° C. for 4 days, and then sterilized saline containing 0.1% (v/v) Tween 80 was added to release the conidia. This conidial suspension was filtered through sterile gauze, and the number of conidia was counted using a hemocytometer. The same solution was adjusted to a conidial concentration of 1×10^6 conidia/mL, and this was used as an inoculum. Each compound was dissolved in dimethyl sulfoxide to a predetermined concentration, and diluted 50-fold with 0.165 M MOPS buffered RPMI 1640 liquid medium, and each diluted solution was dispensed into a 96-well microplate by each 100 μL. The inoculum was diluted 50-fold with 0.165 M MOPS buffered RPMI 1640 liquid medium containing 20% alamar Blue™, and the diluted solution was inoculated into the 96-well microplate containing the compound by each 100 μL (final inoculum amount 1.0×10^4 conidia/mL). After static culture at 35° C. for 48 hr, the degree of color development of the alamar Blue™ was measured using a microplate reader (O.D. 570-595 nm), and the minimum concentration showing 80% or more inhibition was defined as the minimum inhibitory concentration (MIC).

Row | Compound | minimum inhibitory concentration against various fungi (MIC) T. rubrum [1] [ng/mL] | minimum inhibitory concentration against various fungi (MIC) T. mentagrophytes [2] [ng/mL] | minimum inhibitory concentration against various fungi (MIC) C. albicans [3] [ng/mL] | minimum inhibitory concentration against various fungi (MIC) A. fumigatus [4] [ng/mL] | also measured
1 | N#C/C(=C1/SCC(c2ncc(Br)cc2Cl)S1)n1ccnc1 (racemic) [Compound No. 1] | ≤1 | ≤1 | 100 (≈ 0.25 µM) | 1.3 (≈ 0.00325 µM) | 
2 | N#C/C(=C1/SCC(c2ncc(N)cc2Cl)S1)n1ccnc1 (racemic) [Compound No. 2] | 10 (≈ 0.0298 µM) | 10 (≈ 0.0298 µM) | 1000 (≈ 2.98 µM) | 10 (≈ 0.0298 µM) | 
3 | CCCC1CC(c2cnc(C3CS/C(=C(/C#N)n4ccnc4)S3)c(Cl)c2)=NO1 (centres unmarked) [Compound No. 6, (E)-2-{4-[3-chloro-5-(5-propyl-4,5-dihydroisoxazol-3-yl)pyridin-2-yl]-1,3-dithiolan-2-ylidene}-2-(1H-imidazol-1-yl)acetonitrile] |  |  |  |  | MIC [1]: 10 ng/mL (≈ 0.0231 µM); MIC [2]: 10 ng/mL (≈ 0.0231 µM); MIC [3]: 10 ng/mL (≈ 0.0231 µM); MIC [4]: 5 ng/mL (≈ 0.0116 µM)
4 | CCOC(=O)Nc1cnc(C2CS/C(=C(/C#N)n3cncn3)S2)c(F)c1 (centres unmarked) [Compound No. 10, ethyl (E)-(6-{2-[cyano(1H-1,2,4-triazol-1-yl)methylene]-1,3-dithiolan-4-yl}-5-fluoropyridin-3-yl)carbamate] |  |  |  |  | MIC [1]: 10 ng/mL (≈ 0.0255 µM); MIC [2]: 10 ng/mL (≈ 0.0255 µM); MIC [3]: 50 ng/mL (≈ 0.127 µM); MIC [4]: 25 ng/mL (≈ 0.0637 µM)
5 | COC(=O)Nc1cnc(C2CS/C(=C(/C#N)n3ccnc3)S2)c(Cl)c1 (centres unmarked) [Compound No. 15, methyl (E)-(5-chloro-6-{2-[cyano(1H-imidazol-1-yl)methylene]-1,3-dithiolan-4-yl}pyridin-3-yl)carbamate] |  |  |  |  | MIC [1]: 10 ng/mL (≈ 0.0254 µM); MIC [2]: 10 ng/mL (≈ 0.0254 µM); MIC [3]: 2.5 ng/mL (≈ 0.00635 µM); MIC [4]: 5 ng/mL (≈ 0.0127 µM)
6 | CCO/N=C/c1cnc(C2CS/C(=C(/C#N)n3ccnc3)S2)c(Cl)c1 (centres unmarked) [Compound No. 25, (E)-2-(4-{3-chloro-5-[(E)-(ethoxyimino)methyl]pyridin-2-yl}-1,3-dithiolan-2-ylidene)-2-(1H-imidazol-1-yl)acetonitrile] |  |  |  |  | MIC [1]: ≤ 1 ng/mL; MIC [2]: ≤ 1 ng/mL; MIC [3]: 0.6 ng/mL (≈ 0.00153 µM); MIC [4]: 2.5 ng/mL (≈ 0.00638 µM)
7 | N#C/C(=C1/SCC(c2ncc(/C(N)=N/OCc3ccccc3)cc2Cl)S1)n1ccnc1 (centres unmarked) [Compound No. 27, (Z)—N′-(benzyloxy)-5-chloro-6-{(E)-2-[cyano(1H-imidazol-1-yl)methylene]-1,3-dithiolan-4-yl}nicotinimidamide] |  |  |  |  | MIC [1]: ≤ 1 ng/mL; MIC [2]: ≤ 1 ng/mL; MIC [3]: 1.3 ng/mL (≈ 0.00277 µM); MIC [4]: 5 ng/mL (≈ 0.0107 µM)
8 | C=Cc1cnc(C2CS/C(=C(/C#N)n3ccnc3)S2)c(Cl)c1 (centres unmarked) [compound 3] | ≤1 | ≤1 | 100 (≈ 0.288 µM) | 2.5 (≈ 0.00721 µM) | 
9 | N#CCOc1cnc(C2CS/C(=C(/C#N)n3ccnc3)S2)c(Cl)c1 (centres unmarked) [compound 4] | 10 (≈ 0.0266 µM) | 10 (≈ 0.0266 µM) | 1000 (≈ 2.66 µM) | 5 (≈ 0.0133 µM) | 
10 | COC(=O)Nc1cnc(C2CS/C(=C(/C#N)n3cncn3)S2)c(Cl)c1 (centres unmarked) [compound 7] | ≤1 | 10 (≈ 0.0253 µM) | 10 (≈ 0.0253 µM) | 5 (≈ 0.0127 µM) | 
11 | CCOC(=O)Nc1cnc(C2CS/C(=C(/C#N)n3cncn3)S2)c(Cl)c1 (centres unmarked) [compound 11] | ≤1 | 10 (≈ 0.0245 µM) | 10 (≈ 0.0245 µM) | 5 (≈ 0.0122 µM) | 
12 | CC(C)(C)OC(=O)Nc1cnc(C2CS/C(=C(/C#N)n3cncn3)S2)c(Cl)c1 (centres unmarked) [compound 12] | 10 (≈ 0.0229 µM) | 100 (≈ 0.229 µM) | 10 (≈ 0.0229 µM) | 100 (≈ 0.229 µM) | 
13 | CCOC(=O)Nc1cnc(C2CS/C(=C(/C#N)n3ccnc3)S2)c(Cl)c1 (centres unmarked) [compound 16] | ≤1 | 10 (≈ 0.0245 µM) | 2.5 (≈ 0.00613 µM) | 5 (≈ 0.0123 µM) | 
14 | CO/N=C/c1cnc(C2CS/C(=C(/C#N)n3cncn3)S2)c(Cl)c1 (centres unmarked) [compound 19] | ≤1 | 10 (≈ 0.0264 µM) | 10 (≈ 0.0264 µM) | 5 (≈ 0.0132 µM) | 
15 | CCO/N=C/c1cnc(C2CS/C(=C(/C#N)n3cncn3)S2)c(Cl)c1 (centres unmarked) [compound 21] | ≤1 | 10 (≈ 0.0255 µM) | 5 (≈ 0.0127 µM) | 5 (≈ 0.0127 µM) | 
16 | N#C/C(=C1/SCC(c2ncc(/C=N/OCc3ccccc3)cc2Cl)S1)n1cncn1 (centres unmarked) [compound 23] | ≤1 | 10 (≈ 0.022 µM) | 0.6 (≈ 0.00132 µM) | 5 (≈ 0.011 µM) | 
17 | N#C/C(=C1/SC[C@@H](c2ncc(NC(=O)OCc3ccccc3)cc2F)S1)n1cncn1 [compound 106] |  |  |  |  | C. albicans (MIC) ([3]; Table 23, 35° C. for 24 hr): 1.25 ng/mL; A. fumigatus (MIC) ([4]; Table 23, 35° C. for 48 hr): 5 ng/mL
18 | CCCOC(=O)Nc1cnc([C@@H]2CS/C(=C(/C#N)n3cncn3)S2)c(F)c1 [compound 110] |  |  |  |  | C. albicans (MIC) ([3]; Table 23, 35° C. for 24 hr): 10 ng/mL; A. fumigatus (MIC) ([4]; Table 23, 35° C. for 48 hr): 5 ng/mL
19 | N#C/C(=C1/SC[C@@H](c2ncc(NC(=O)OCC3CC3(F)F)cc2Cl)S1)n1cncn1 (some centres unmarked) [compound 130] |  |  |  |  | C. albicans (MIC) ([3]; Table 24, 35° C. for 24 hr): 2.5 ng/mL; A. fumigatus (MIC) ([4]; Table 24, 35° C. for 48 hr): 5 ng/mL
20 | N#C/C(=C1/SC[C@@H](c2ncc(NC(=O)OCC3CC3(F)F)cc2F)S1)n1cncn1 (some centres unmarked) [compound 131] |  |  |  |  | C. albicans (MIC) ([3]; Table 24, 35° C. for 24 hr): 10 ng/mL; A. fumigatus (MIC) ([4]; Table 24, 35° C. for 48 hr): 10 ng/mL
21 | N#C/C(=C1/SC[C@@H](c2ncc(NC(=O)OCC3(F)CC3)cc2Cl)S1)n1cncn1 [compound 155] |  |  |  |  | C. albicans (MIC) ([3]; Table 25, 35° C. for 24 hr): 2.5 ng/mL; A. fumigatus (MIC) ([4]; Table 25, 35° C. for 48 hr): 10 ng/mL

— US20250197384A1, “AZOLE COMPOUND AND ANTIFUNGAL AGENT” (NIHON NOHYAKU CO., LTD., priority 2022, published 2025)
